System: 889142-216-R-J1-PDC complex spheroid viability
Assay: Anticancer human tumor 889142-216-R-J1-PDC patient-derived bladder carcinoma cell line growth inhibition [POLQ]
Conditions: for IC50: curve of first compound; for viability, T/C: stronger effect = lower value
In short: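 Three-cell-type spheroids modelling solid tumor plus stroma served as the readout system; POL inhibitors were tested individually and in combination, concentration ranges set by clinical Cmax where known.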

[1] = second compound 0.0316 µM, first compound 0.0316 µM
[2] = second compound 0.0316 µM, first compound 0.1 µM
[3] = second compound 0.0316 µM, first compound 0.316 µM
[4] = second compound 0.0316 µM, first compound 1 µM
[5] = second compound 0.0316 µM, first compound 3.16 µM
[6] = second compound 0.0316 µM, first compound 10 µM
[7] = second compound 0.1 µM, first compound 0.0316 µM
[8] = second compound 0.1 µM, first compound 0.1 µM
[9] = second compound 0.1 µM, first compound 0.316 µM
[10] = second compound 0.1 µM, first compound 1 µM
[11] = second compound 0.1 µM, first compound 3.16 µM
[12] = second compound 0.1 µM, first compound 10 µM
[13] = second compound 0.316 µM, first compound 0.0316 µM
[14] = second compound 0.316 µM, first compound 0.1 µM
[15] = second compound 0.316 µM, first compound 0.316 µM
[16] = second compound 0.316 µM, first compound 1 µM
[17] = second compound 0.316 µM, first compound 3.16 µM
[18] = second compound 0.316 µM, first compound 10 µM
[19] = second compound 1 µM, first compound 0.0316 µM
[20] = second compound 1 µM, first compound 0.1 µM
[21] = second compound 1 µM, first compound 0.316 µM
[22] = second compound 1 µM, first compound 1 µM
[23] = second compound 1 µM, first compound 3.16 µM
[24] = second compound 1 µM, first compound 10 µM
[25] = second compound 3.16 µM, first compound 0.0316 µM
[26] = second compound 3.16 µM, first compound 0.1 µM
[27] = second compound 3.16 µM, first compound 0.316 µM
[28] = second compound 3.16 µM, first compound 1 µM
[29] = second compound 3.16 µM, first compound 3.16 µM
[30] = second compound 3.16 µM, first compound 10 µM
[31] = second compound 10 µM, first compound 0.0316 µM
[32] = second compound 10 µM, first compound 0.1 µM
[33] = second compound 10 µM, first compound 0.316 µM
[34] = second compound 10 µM, first compound 1 µM
[35] = second compound 10 µM, first compound 3.16 µM
[36] = second compound 10 µM, first compound 10 µM
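Further: spheroids exposed to compounds for seven days.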
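Wherever viability, T/C is given: 100% = DMSO vehicle control viability.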

`CC1COCCN1c1cc(C2(O)CC3CCC(C2)O3)c2cnn(-c3ccn[nH]3)c2n1` (centres undefined) + Nc1ccc(C#CCN(C(=O)Cc2ncc(C(F)(F)F)cc2C(F)(F)F)c2ccc(F)cc2)nn1 gave an IC50 (second compound 0.0316 µM) of 101 nM, an IC50 (second compound 0.1 µM) of 251 nM and an IC50 (second compound 0.316 µM) of 209 nM. The IC50 (second compound 1 µM) was 99.7 nM, the IC50 (second compound 3.16 µM) was 121 nM and the IC50 (second compound 10 µM) was 108 nM. It also gave a viability, T/C [1] of 63.7%, a viability, T/C [2] of 47.1% and a viability, T/C [3] of 39.1%. For the same compound, the viability, T/C [4] was 35.1%, the viability, T/C [5] was 30.5% and the viability, T/C [6] was 20.3%. The viability, T/C [7] was 67.2%, the viability, T/C [8] was 56.4% and the viability, T/C [9] was 49.4%. The viability, T/C [10] was 39.4%, the viability, T/C [11] was 31.6% and the viability, T/C [12] was 26.1%. For the same compound, the viability, T/C [13] was 71.9%, the viability, T/C [14] was 62% and the viability, T/C [15] was 40.9%. For the same compound, the viability, T/C [16] was 35%, the viability, T/C [17] was 27% and the viability, T/C [18] was 20%. The viability, T/C [19] was 64.5%, the viability, T/C [20] was 47.3% and the viability, T/C [21] was 37.4%. The viability, T/C [22] was 35.4%, the viability, T/C [23] was 29.6% and the viability, T/C [24] was 19.4%. For the same compound, the viability, T/C [25] was 57.8%, the viability, T/C [26] was 49.3% and the viability, T/C [27] was 44.8%. The viability, T/C [28] was 36%, the viability, T/C [29] was 31.2% and the viability, T/C [30] was 16.6%. The viability, T/C [31] was 67%, the viability, T/C [32] was 44.3% and the viability, T/C [33] was 42.1%. It also gave a viability, T/C [34] of 31.2%, a viability, T/C [35] of 26.8% and a viability, T/C [36] of 16.2%.

In the case of `CCCS(=O)(=O)Nc1ccc(F)c(C(=O)c2c[nH]c3ncc(-c4ccc(Cl)cc4)cc23)c1F` + COC1C(OC(N)=O)C(O)C(Oc2ccc3c(O)c(NC(=O)c4ccc(O)c(CC=C(C)C)c4)c(=O)oc3c2C)OC1(C)C, the IC50 (second compound 0.0316 µM) is reported as 5530 nM, the IC50 (second compound 0.1 µM) is reported as 4990 nM and the IC50 (second compound 0.316 µM) is reported as 7020 nM. The IC50 (second compound 1 µM) was 6230 nM, the IC50 (second compound 3.16 µM) was 5260 nM and the IC50 (second compound 10 µM) was 6110 nM. The viability, T/C [1] was 108%, the viability, T/C [2] was 108% and the viability, T/C [3] was 93.5%. It also gave a viability, T/C [4] of 109%, a viability, T/C [5] of 62.2% and a viability, T/C [6] of 36.9%. The viability, T/C [7] was 126%, the viability, T/C [8] was 110% and the viability, T/C [9] was 98.5%. For the same compound, the viability, T/C [10] was 91.9%, the viability, T/C [11] was 55% and the viability, T/C [12] was 34.9%. For the same compound, the viability, T/C [13] was 126%, the viability, T/C [14] was 98.3% and the viability, T/C [15] was 92.8%. It also gave a viability, T/C [16] of 99.5%, a viability, T/C [17] of 69.7% and a viability, T/C [18] of 39.6%. It also gave a viability, T/C [19] of 101%, a viability, T/C [20] of 109% and a viability, T/C [21] of 104%. The viability, T/C [22] was 93.9%, the viability, T/C [23] was 64.5% and the viability, T/C [24] was 40%. It also gave a viability, T/C [25] of 116%, a viability, T/C [26] of 115% and a viability, T/C [27] of 98%. It also gave a viability, T/C [28] of 80.4%, a viability, T/C [29] of 63.9% and a viability, T/C [30] of 34.6%. For the same compound, the viability, T/C [31] was 104%, the viability, T/C [32] was 105% and the viability, T/C [33] was 95.5%. It also gave a viability, T/C [34] of 90%, a viability, T/C [35] of 68.2% and a viability, T/C [36] of 36.2%.

Reference: PubChem BioAssay AID1963831 (Molecular Pharmacology Branch, DTP, NCI, 2024)
